The values below come from patent US8859743B2, “Controlling microbial contamination in alcoholic fermentation process” (Arch Chemicals, Inc., priority 2009, dated 2014).

Holding throughout (type): cell-based
One assay has as its system Saccharomyces cerevisiae. The experiment in a line: Count of fermentative yeast in treated fermentative must (WLN).
Another assay deals with Wild yeast. The experiment in a line: Count of wild yeast in treated fermentative must (WLN+).
The next assay deals with Lactobacilli. The assay can be described thus: Count of Lactobacilli in treated fermentative must (MRS).
In another assay the test system is bacteria. The experiment in a line: Count of other bacteria in treated fermentative must (TSA).
The mark [1] stands for this setting: in relation to the control sample 4.

Regarding `CC[C@@]1([C@@H]2O[C@@H]([C@H]3O[C@@](O)(CO)[C@H](C)C[C@@H]3C)C[C@@H]2C)CC[C@H]([C@]2(C)CC[C@]3(C[C@H](O)[C@@H](C)[C@@H]([C@@H](C)[C@@H](OC)[C@H](C)C(=O)O)O3)O2)O1` [Sample 01, monensin], the “WLN UFC/mL Saccharomyces cerevisiae” value in the assay on Saccharomyces cerevisiae (fermentative must after treatment, blank 1.3 × 10^6) is given as 1 × 10^5 UFC/mL. For the same molecule, the “reduction in the fermentative yeast” value in the assay on Saccharomyces cerevisiae (setting [1]) was “about 1 log”. Also, the “WLN+ UFC/mL Wild yeast” value with Wild yeast (fermentative must after treatment, blank 9.5 × 10^6) was 2 × 10^4 UFC/mL. Moreover, the “reduction in the wild yeast” value in the assay on Wild yeast (setting [1]) is reported as “about 3 log”. Moreover, in the assay on Lactobacilli (fermentative must after treatment, blank 3.1 × 10^6), the “MRS UFC/mL Lactobacilli” value was 2.5 × 10^2 UFC/mL. In the assay with Lactobacilli (setting [1]), the “reduction in the Lactobacilli” value is recorded as “about 4 log”. In the assay on bacteria (fermentative must after treatment, blank 6 × 10^5), the “TSA UFC/mL bacteria” value is recorded as 7 × 10^3 UFC/mL. For the same molecule, the “reduction in other bacteria” value with bacteria (setting [1]) was “about 2 log”.
